According to patent publication US20200131249A1, “NOVEL PROTEINS AND USE THEREOF” (EVOLVERITAS KFT., priority 2017, published 2020):
Where no end group is shown, it is not given here.

How the values were obtained:
Type in all cases: biochemical
alternative pathway = experiment: C3 deposition ELISA with rat serum on LPS coated plates; conditions: final concentrations as high as 50 μM; 6-fold diluted rat serum
Procedure: (§1) ELISA-based complement classical and alternative pathway activation tests were performed on IgG or lipopolysaccharide (LPS) coated plates, respectively, using diluted individual (not pooled) rat serum. In these tests, inhibitory efficiencies of the protein of SEQ ID NO: 14 and SGMI-2 were compared and C3 deposition was used for quantification of the complement activation.
The buffers, incubation times, incubation temperatures and antibodies were the same as described in point 4.5.1.
The final dilution of the rat serum was 6-fold. The dilution of the primary antibody was 3000-fold.

classical pathway = experiment: C3 deposition ELISA with diluted rat serum on IgG coated plates; conditions: final concentrations as high as 50 μM; 50-fold diluted rat serum
Procedure: as §1
96-well Greiner high binding ELISA plates were coated with 100 μl/well 10 μg/ml IgG (Sigma—12511) dissolved in coating buffer (50 mM sodium-carbonate pH 9.6) overnight at 4° C. Control wells contained coating buffer alone. Wells were blocked for 2 h at 37° C. with 200 μl/well 10 mg/ml bovine serum albumin (BSA) dissolved in 50 mM Tris pH 7.4, 150 mM NaCl, 0.1% Tween-20 buffer. Serial dilutions of the inhibitors were made in 10 mM HEPES pH 7.4, 150 mM NaCl, 5 mM CaCl2, 5 mM MgCl2, 0.1% Tween-20 buffer (serum dilution buffer). Rat serum was thawed on ice and diluted 25-fold in serum dilution buffer. The diluted inhibitor samples were mixed with the 25-fold diluted rat serum in 1:1 volume ratio resulting in 50-fold diluted rat serum-inhibitor samples. The samples were incubated at room temperature for 30 minutes. […] The 490 nm absorbance values were recorded using a PerkinElmer EnSpire multimode plate reader. Four parallels were measured for each data point.

human MASP-1 = target: T1, human MASP-1 (Homo sapiens, UniProt P48740); experiment: KI determination on human MASP-1 catalytic fragment; design: key to KI on human MASP-1: N.E.: not effective; conditions: catalytic fragment; Z-L-Lys-SBzl
T1 construct: catalytic enzyme fragments containing the three C-terminal domains: CCP1-CCP2-SP
T1 sequence (P48740 449-699 limits assumed): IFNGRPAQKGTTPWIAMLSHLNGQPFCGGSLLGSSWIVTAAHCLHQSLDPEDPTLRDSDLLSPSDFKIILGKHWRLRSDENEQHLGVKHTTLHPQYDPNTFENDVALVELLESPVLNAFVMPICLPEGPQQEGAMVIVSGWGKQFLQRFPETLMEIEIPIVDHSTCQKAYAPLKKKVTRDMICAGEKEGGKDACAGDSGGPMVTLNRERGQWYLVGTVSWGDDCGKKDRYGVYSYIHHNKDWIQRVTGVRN
T1 sequence (P48740 298-448 partner limits assumed): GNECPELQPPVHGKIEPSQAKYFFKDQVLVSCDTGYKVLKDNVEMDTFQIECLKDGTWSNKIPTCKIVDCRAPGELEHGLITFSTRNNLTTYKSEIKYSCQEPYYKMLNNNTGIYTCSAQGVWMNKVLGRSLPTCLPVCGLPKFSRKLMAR
Procedure: The inhibition equilibrium constant (KI) of all four inhibitor variants produced was measured on human MASP-2 and rat MASP-2. Additionally, KI values were measured also on human MASP-1 and human MASP-3 to assess the specificity of the inhibitors amongst the MASP enzymes. KI values of the inhibitors on bovine trypsin, a pancreatic model enzyme was also measured.
For determining the KI of the inhibitors on MASP enzymes we used catalytic enzyme fragments containing the three C-terminal domains: CCP1-CCP2-SP. The synthetic substrate used in the measurements was Z-L-Lys-SBzl hydrochloride (Sigma, C3647), from which a 10 mM stock solution was prepared. The reactions were performed in a volume of 0.2 ml at room temperature in a buffer consisting of 20 mM HEPES; 145 mM NaCl; 5 mM CaCl2; 0.05% Triton-X100. The substrate cleaved by the enzyme entered into a reaction with the 5,5′-Dithiobis(2-nitrobenzoic acid) (DTNB, Ellman's reagent, Sigma—D8130) auxiliary substrate present in the solution in 2-fold excess to Z-L-Lys-SBzl. The release of the chromophore group created in this way was monitored via the change of absorbance at 410 nm using a BioTek Synergy H4 multimode microplate reader.
A dilution sequence was prepared from the individual inhibitors, the enzyme was added to it, and it was incubated for 2 hours at room temperature. The samples were transferred on a 96-well microtiter plate (Nunc 269620). The reactions were started by adding the mixture of the substrate and the auxiliary substrate to the samples. The concentration of the substrate and the length of the measuring period were chosen so that under the given conditions the enzyme should consume less than 10% of the substrate. In this case we used 250 μM Z-L-Lys-SBzl and 500 μM DTNB in the reactions. In the course of measuring, a method developed for the characterisation of tight-binding inhibitors was used (Empie, 1982). The concentration of the product was measured as a function of reaction time. The slope of the straight line determined for the initial phase of the reaction was normalised with the slope obtained for the uninhibited enzyme reaction, and this value was multiplied with the total enzyme concentration. As a result of this we obtained the free enzyme concentration, which was plotted as a function of the total inhibitor concentration and the Ki value was determined according to the following equation:
E=y=E0−(E0+x+Ki−(((E0+x+Ki)^2)−4*E0*x)^(½))/2,
where E is the free (uninhibited) enzyme concentration, and E0 is the total enzyme concentration. The stock concentration of the inhibitors was determined by titration with bovine trypsin of known concentration. The results were calculated as the average of parallel measurements.

KI on human MASP-1 (human MASP-1) | Substance | inhibition of the alternative pathway in rat serum (alternative pathway) | inhibition of the classical pathway in rat serum (classical pathway)
N.E. | SEQ ID NO: 14: TFPI-D2 variant protein with inhibitor loop PCRAVKR (SEQ ID NO: 4) (KPDFCFLEEDPGPCRAVKRRYFYNNQTKQCERFKYGGCLGNMNNFETLEECKNICEDG; ends and bridges not checked; cysteine pairing not given here) | neither the protein of SEQ ID NO: 14 nor SGMI-2 were able to inhibit | neither the protein of SEQ ID NO: 14 nor SGMI-2 were able to inhibit
N.E. | SGMI-2 (GSGEVTCEPGTTFKDKCNTCRCGSDGKSAVCTKLWCNQ; Synthetic protein of insect origin) [reference compound] | neither the protein of SEQ ID NO: 14 nor SGMI-2 were able to inhibit | neither the protein of SEQ ID NO: 14 nor SGMI-2 were able to inhibit
